Results as given in ChEMBL document CHEMBL4017545, “Small Molecule Antagonists of the Interaction between the Histone Deacetylase 6 Zinc-Finger Domain and Ubiquitin” (J Med Chem, 2017).

Legend:
[1] = target: T1, Protein deacetylase HDAC6 (Homo sapiens, UniProt Q9UBN7); experiment: Binding affinity to N-terminal Avi-tagged/C-terminal His6-tagged HDAC6 zinc-finger ubiquitin binding domain (1109 to 1215 residues)(unknown origin) expressed in Escherichia coli BL21(DE3) after 30 secs by SPR assay
T1 sequence (Q9UBN7 whole entry): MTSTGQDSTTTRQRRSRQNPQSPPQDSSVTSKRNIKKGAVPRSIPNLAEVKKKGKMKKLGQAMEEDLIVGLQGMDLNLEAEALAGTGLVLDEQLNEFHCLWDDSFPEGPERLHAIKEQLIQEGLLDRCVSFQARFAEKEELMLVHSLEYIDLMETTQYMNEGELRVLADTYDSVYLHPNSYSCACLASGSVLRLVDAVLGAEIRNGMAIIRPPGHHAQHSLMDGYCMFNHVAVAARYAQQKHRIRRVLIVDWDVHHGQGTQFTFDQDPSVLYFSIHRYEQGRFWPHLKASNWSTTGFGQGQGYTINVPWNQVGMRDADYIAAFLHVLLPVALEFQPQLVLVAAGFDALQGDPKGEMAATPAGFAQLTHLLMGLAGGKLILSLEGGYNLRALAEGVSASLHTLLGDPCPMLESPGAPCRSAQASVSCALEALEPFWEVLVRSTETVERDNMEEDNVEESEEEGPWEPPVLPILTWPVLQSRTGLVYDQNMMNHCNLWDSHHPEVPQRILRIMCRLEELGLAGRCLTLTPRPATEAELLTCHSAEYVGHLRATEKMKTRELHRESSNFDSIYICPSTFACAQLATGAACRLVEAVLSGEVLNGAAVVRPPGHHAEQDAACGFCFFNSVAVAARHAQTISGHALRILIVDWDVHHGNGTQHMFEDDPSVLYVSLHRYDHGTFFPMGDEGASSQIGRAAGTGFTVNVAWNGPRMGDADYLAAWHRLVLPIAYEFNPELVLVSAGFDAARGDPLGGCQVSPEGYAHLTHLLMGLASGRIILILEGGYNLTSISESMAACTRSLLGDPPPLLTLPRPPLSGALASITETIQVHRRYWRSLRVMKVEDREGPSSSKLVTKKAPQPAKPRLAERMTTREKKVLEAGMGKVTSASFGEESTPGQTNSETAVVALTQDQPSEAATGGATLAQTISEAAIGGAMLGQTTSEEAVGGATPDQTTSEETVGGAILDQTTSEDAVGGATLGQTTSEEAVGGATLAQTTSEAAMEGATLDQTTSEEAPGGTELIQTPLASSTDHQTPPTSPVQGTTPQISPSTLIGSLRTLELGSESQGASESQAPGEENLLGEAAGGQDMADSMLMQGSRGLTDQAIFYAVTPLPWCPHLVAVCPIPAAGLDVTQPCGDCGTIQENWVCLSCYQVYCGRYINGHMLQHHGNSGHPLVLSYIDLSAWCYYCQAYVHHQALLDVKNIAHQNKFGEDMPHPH

[2] = target: T1, Protein deacetylase HDAC6; experiment: Binding affinity to N-terminal His6-tagged HDAC6 zinc-finger ubiquitin binding domain (1109 to 1215 residues)(unknown origin) expressed in Escherichia coli BL21(DE3) by isothermal titration calorimetry
[3] = target: T1, Protein deacetylase HDAC6; experiment: Displacement of FITC-labeled RLRGG peptide from N-terminal His6-tagged HDAC6 zinc-finger ubiquitin binding domain (1109 to 1215 residues)(unknown origin) expressed in Escherichia coli BL21(DE3) after 10 mins by fluorescence polarization assay

O=C(O)CCc1nc2cc(Cl)ccc2s1
Kd ([1]; read-out: Kd): 60 µM
Kd ([2]; read-out: Kd): 40 µM
IC50 ([3]; read-out: IC50): 55 µM

CCC(=O)Nc1nc(C)cs1
Kd [1]: Not Active
Kd [2]: Not Active
IC50 [3]: Not Active

O=C(O)CCc1nc2ccccc2nc1OCc1ccccc1
IC50 [3]: Not Active

Cc1cccc(OCCOc2nc3ccccc3nc2CCC(=O)O)c1
IC50 ([3]; read-out: IC50): 180 µM

O=C(O)CCc1nc2ccccc2nc1Sc1ccccc1
IC50 ([3]; read-out: IC50): 60 µM

Cn1c(=O)c(CCC(=O)O)nc2ccccc21
IC50 ([3]; read-out: IC50): 70 µM

O=C(O)CCc1nc2ccccc2nc1OCc1cccs1
IC50 [3]: Not Active

Cn1ccnc1COc1nc2ccccc2nc1CCC(=O)O
IC50 ([3]; read-out: IC50): 140 µM

O=C(O)CCc1nc2ccccc2nc1OCCOc1ccccn1
IC50 ([3]; read-out: IC50): 110 µM

Cc1n[nH]c(=O)nc1Nc1ccc(C(C)C)cc1
Kd [1]: Not Active
Kd [2]: Not Active
IC50 [3]: Not Active

O=C(O)CCn1nc(-c2cccnc2)ccc1=O
Kd ([1]; read-out: Kd): 220 µM
Kd ([2]; read-out: Kd): 210 µM
IC50 ([3]; read-out: IC50): 350 µM

O=C(O)CCc1nc2ccccc2nc1OCc1ccccn1
IC50 ([3]; read-out: IC50): 270 µM
